Legend:
[1] = system: MCF-7 cells; assay: MTT cytotoxicity assay, MCF-7; type: cell-based; settings: Homo sapiens, MCF7, 72 h, read-out: IC50 MCF-7, MTT, 72 h, mean ± SD
[2] = system: HepG2 cells; assay: MTT cytotoxicity assay, HepG2; type: cell-based; settings: Homo sapiens, HepG2, 72 h, read-out: IC50 HepG2, MTT, 72 h, mean ± SD
[3] = system: A549 cells; assay: MTT cytotoxicity assay, A549; type: cell-based; settings: Homo sapiens, A549, 72 h, read-out: IC50 A549, MTT, 72 h, mean ± SD
[4] = system: A549 cells; assay: Cell cycle analysis by flow cytometry; settings: 12 h, 4.20 μM 14d, 5.38 μM 19b; for Freq Sub-G1: control 0.07; for Freq G2 (percentage of cells in G2/M phase): control 18.21; for Freq S: control 32.62; for Freq G1: control 48.59
[5] = system: A549 cells; assay: Acridine orange; type: cell-based; settings: 12 h, 4.20 μM 14d, 5.38 μM 19b
[6] = system: EGFR; settings: read-out: IC50 (EGFR); previous investigation; cited from earlier work
[7] = previous investigation; cited from earlier work

Structure (SMILES) | IC50 [1] [µM] | IC50 [2] [µM] | IC50 [3] [µM] | further results
O=C(N/N=C/c1ccco1)Nc1cc2c(Nc3ccc(F)c(Cl)c3)ncnc2cc1O[C@H]1CCOC1 [10a, (S,E)-N-(4-((3-chloro-4-fluorophenyl)amino)-7-((tetrahydrofuran-3-yl)oxy)quinazolin-6-yl)-2-(furan-2-ylmethylene)hydrazine carboxamide] | 33.4 ± 0.97 | 35.2 ± 1.53 |  | 
Cc1ccc(/C=N/NC(=O)Nc2cc3c(Nc4ccc(F)c(Cl)c4)ncnc3cc2O[C@H]2CCOC2)o1 [10b, (S,E)-N-(4-((3-Chloro-4-fluorophenyl)amino)-7-((tetrahydrofuran-3-Yl)Oxy)quinazolin-6-Yl)-2-((5-methylfuran-2-Yl)methylene)hydrazine carboxamide] | 34.8 ± 1.01 | 33.2 ± 1.46 | 28.2 ± 1.34 | 
Cc1ccc(/C=N/NC(=O)Nc2cc3c(Nc4ccc(F)c(Cl)c4)ncnc3cc2O[C@H]2CCOC2)s1 [10c, (S,E)-N-(4-((3-chloro-4-fluorophenyl)amino)-7-((tetrahydrofuran-3-yl)oxy)quinazolin-6-yl)-2-((5-methylthiophen-2-yl)methylene)hydrazine carboxamide] | 26.1 ± 1.33 | 29.2 ± 1.43 | 28.4 ± 0.56 | 
CCc1ccc(/C=N/NC(=O)Nc2cc3c(Nc4ccc(F)c(Cl)c4)ncnc3cc2O[C@H]2CCOC2)s1 [10d, (S,E)-N-(4-((3-chloro-4-fluorophenyl)amino)-7-((tetrahydrofuran-3-Yl)oxy)quinazolin-6-Yl)-2-((5-ethylthiophen-2-Yl)methylene)hydrazine carboxamide] |  | 36.2 ± 1.78 | 34.23 ± 0.31 | 
O=C(N/N=C/c1ccc[nH]1)Nc1cc2c(Nc3ccc(F)c(Cl)c3)ncnc2cc1O[C@H]1CCOC1 [10e, (S,E)-2-((1H-pyrrol-2-Yl)methylene)-N-(4-((3-chloro-4-fluorophenyl)amino)-7-((tetrahydrofuran-3-Yl)oxy)quinazolin-6-Yl)hydrazine carboxamide] | 1.21 ± 0.19 | 0.59 ± 0.02 | 2.41 ± 0.32 | 
COc1cc2ncnc(Nc3ccc(F)c(Cl)c3)c2cc1NC(=O)N/N=C/c1ccco1 [11a, (E)-N-(4-((3-chloro-4-fluorophenyl)amino)-7-methoxyquinazolin-6-yl)-2-(furan-2-ylmethylene)hydrazine carboxamide] |  | 29.7 ± 1.86 | 26.2 ± 1.23 | 
COc1cc2ncnc(Nc3ccc(F)c(Cl)c3)c2cc1NC(=O)N/N=C/c1ccc(C)o1 [11b, (E)-N-(4-((3-chloro-4-fluorophenyl)amino)-7-methoxyquinazolin-6-yl)-2-((5-methylfuran-2-yl)methylene)hydrazine carboxamide] | 35.2 ± 81 | 30.2 ± 1.16 | 28.2 ± 1.34 | 
COc1cc2ncnc(Nc3ccc(F)c(Cl)c3)c2cc1NC(=O)N/N=C/c1ccc(C)s1 [11c, (E)-N-(4-((3-chloro-4-fluorophenyl)amino)-7-methoxyquinazolin-6-yl)-2-((5-methylthiophen-2-yl)methylene)hydrazine carboxamide] | 28.1 ± 1.13 | 27.4 ± 1.03 | 29.3 ± 0.36 | 
CCc1ccc(/C=N/NC(=O)Nc2cc3c(Nc4ccc(F)c(Cl)c4)ncnc3cc2OC)s1 [11d, (E)-N-(4-((3-chloro-4-fluorophenyl)amino)-7-methoxyquinazolin-6-yl)-2-((5-ethylthiophen-2-yl)methylene)hydrazine carboxamide] |  | 35.2 ± 1.08 | 35.3 ± 0.42 | 
O=C(N/N=C/CN1CCCCC1)Nc1cc2c(Nc3ccc(F)c(Cl)c3)ncnc2cc1O[C@H]1CCOC1 [14d, (S,E)-N-(4-((3-chloro-4-fluorophenyl)amino)-7-((tetrahydrofuran-3-yl)oxy)quinazolin-6-yl)-2-(2-(piperidin-1-yl)ethylidene)hydrazine carboxamide] |  |  |  | Freq Sub-G1 [4]: 0.06%; Freq G2 (percentage of cells in G2/M phase) [4]: 23.62%; Freq S [4]: 48.44%; Freq G1 [4]: 27.08%; Morphologic changes of A549 cells (AO staining), apoptosis [5]: can induce A549 cell apoptosis
CN(C)CCn1cccc1/C=N/NC(=O)Nc1cc2c(Nc3ccc(F)c(Cl)c3)ncnc2cc1O[C@H]1CCOC1 [19b, (S,E)-N-(4-((3-chloro-4-fluorophenyl)amino)-7-((tetrahydrofuran-3-yl)oxy)quinazolin-6-yl)-2-((1-(2-(dimethylamino)ethyl)-1H-pyrrol-2-yl)methylene)hydrazine carboxamide] |  |  |  | Freq Sub-G1 [4]: 0.05%; Freq G2 (percentage of cells in G2/M phase) [4]: 22.31%; Freq S [4]: 43.84%; Freq G1 [4]: 33.23%; Morphologic changes of A549 cells (AO staining), apoptosis [5]: can induce A549 cell apoptosis
CN(C)C/C=C/C(=O)Nc1cc2c(Nc3ccc(F)c(Cl)c3)ncnc2cc1O[C@H]1CCOC1 [Afatinib, reference compound] |  |  |  | Freq Sub-G1 [4]: 0.03%; Freq G2 (percentage of cells in G2/M phase) [4]: 47.45%; Freq S [4]: 12.92%; Freq G1 [4]: 39.41%
O=C(N/N=C/c1ccc(O)cc1)Nc1cc2c(Nc3ccc(F)c(Cl)c3)ncnc2cc1O[C@H]1CCOC1 [BMC201725-9o, (S,E)-N-(4-((3-chloro-4-fluorophenyl)amino)-7-((tetrahydrofuran-3-yl)oxy)quinazolin-6-yl)-2-(4-hydroxybenzylidene)hydrazine carboxamide] |  |  |  | IC50 [6]: 0.056 µM; solubility [7]: unsatisfactory solubility

Source: paper PMC6232652 (Computational and Structural Biotechnology Journal, 2018)
